Patent US6407265B2, “Tin polyoxaalkanecarboxylates and compositions containing them” (priority 1998, dated 2002)
In brackets after ≈: the same amount, converted by molar mass.

Columns and labels:
[1] = test system: M19 MEL (melanoma); assay type: cell-based, human; conditions: in vitro, M19 MEL melanoma cell line
[2] = test system: EVSA-T (mammary cancer); assay type: cell-based, human; conditions: in vitro, EVSA-T mammary cancer cell line
From the text: (§1) The ID50 inhibition doses in ng/ml of the tested compounds are given in the table as well as those for some known reference compounds.

[3] = test system: A 498 (renal cancer); assay type: cell-based, human; conditions: in vitro, A 498 renal cancer cell line
[4] = test system: IGROV (ovarian cancer); assay type: cell-based, human; conditions: in vitro, IGROV ovarian cancer cell line
[5] = test system: MCF-7 (mammary cancer); assay type: cell-based, human; conditions: in vitro, MCF-7 mammary cancer cell line
From the text: as §1

[6] = test system: H226 (non small cell lung cancer); assay type: cell-based, human; conditions: in vitro, H226 non small cell lung cancer cell line
[7] = test system: WiDr (colon carcinoma); assay type: cell-based, human; conditions: in vitro, WiDr colon carcinoma cell line
[8] = Stability in the presence of water (117Sn NMR); assay type: physicochemical; conditions: CD3CD2OD solution, increasing amounts of D2O added, resonance regularly slightly shifted
Method: The stability in the presence of water of four compounds, 6, 8, 9 and 12, was determined.

| Compound | ID50 inhibition dose M19 [1] | ID50 inhibition dose EVSA-T [2] | ID50 inhibition dose A498 [3] | ID50 inhibition dose IGROV [4] | ID50 inhibition dose MCF-7 [5] | ID50 inhibition dose H226 [6] | ID50 inhibition dose WiDr [7] | Stability in the presence of water [8] |
| --- | --- | --- | --- | --- | --- | --- | --- | --- |
| bis[di-n-butyl(3,6-dioxaheptanoato)tin]oxide [Compound 11] | <0.003 µg/mL | <0.003 µg/mL | <0.003 µg/mL | <0.003 µg/mL | <0.003 µg/mL | 0.005 µg/mL | 0.006 µg/mL |  |
| triphenyltin 3,6,9-trioxadecanoate [Compound 12] | 0.024 µg/mL | 0.009 µg/mL | 0.021 µg/mL | 0.033 µg/mL | 0.009 µg/mL | 0.025 µg/mL | 0.019 µg/mL | single resonance |
| CN(Cc1cnc2nc(N)nc(N)c2n1)c1ccc(C(=O)N[C@@H](CCC(=O)O)C(=O)O)cc1 [methotrexate, reference compound] | 0.023 µg/mL (≈ 0.0506 µM) | 0.005 µg/mL (≈ 0.011 µM) | 0.037 µg/mL (≈ 0.0814 µM) | 0.007 µg/mL (≈ 0.0154 µM) | 0.018 µg/mL (≈ 0.0396 µM) | 2.287 µg/mL (≈ 5.03 µM) | <0.003 µg/mL |  |
| O=c1[nH]cc(F)c(=O)[nH]1 [5-fluoro-uracil, reference compound] | 0.442 µg/mL (≈ 3.4 µM) | 0.475 µg/mL (≈ 3.65 µM) | 0.143 µg/mL (≈ 1.1 µM) | 0.297 µg/mL (≈ 2.28 µM) | 0.75 µg/mL (≈ 5.77 µM) | 0.34 µg/mL (≈ 2.61 µM) | 0.225 µg/mL (≈ 1.73 µM) |  |
| CCC[CH2][Sn]([CH2]CCC)([O]C(=O)COCCOC)[O]C(=O)COCCOC [Compound 10, di-n-butyltin bis(3,6-diheptanoate)] | 0.115 µg/mL | 0.062 µg/mL | 0.134 µg/mL | 0.128 µg/mL | 0.06 µg/mL | 0.161 µg/mL | 0.379 µg/mL |  |
| COc1cc([C@@H]2c3cc4c(cc3[C@@H](O[C@@H]3O[C@@H]5CO[C@@H](C)O[C@H]5[C@H](O)[C@H]3O)[C@H]3COC(=O)[C@H]23)OCO4)cc(OC)c1O [etoposide, reference compound] | 0.505 µg/mL (≈ 0.858 µM) |  | 1.314 µg/mL (≈ 2.23 µM) | 0.58 µg/mL (≈ 0.985 µM) |  | 3.934 µg/mL (≈ 6.68 µM) | 0.15 µg/mL (≈ 0.255 µM) |  |
| O=C([O][Sn]([c]1ccccc1)([c]1ccccc1)[c]1ccccc1)c1ccc2c(c1)OCCOCCOCCOCCOCCO2 [Compound 1, triphenyltin 4,7,10,13,16,19-hexaoxadicyclo[16.4.0]dicosa-1,3 (20),21-triene-1-carboxylate] | 0.016 µg/mL | 0.012 µg/mL | 0.043 µg/mL | 0.03 µg/mL | 0.015 µg/mL | 0.037 µg/mL | 0.013 µg/mL |  |
| CCC[CH2][Sn+2][CH2]CCC.O=C([O-])c1ccc2c(c1)OCCOCCOCCOCCOCCO2.O=C([O-])c1ccc2c(c1)OCCOCCOCCOCCOCCO2 [Compound 3] | 0.219 µg/mL | 0.128 µg/mL | 0.282 µg/mL | 0.26 µg/mL | 0.155 µg/mL | 0.281 µg/mL | 0.781 µg/mL |  |
| COCCOCC(=O)[O][Sn]([c]1ccccc1)([c]1ccccc1)[c]1ccccc1 [Compound 8, triphenyltin 3,6-diheptanoate] | 0.031 µg/mL | 0.012 µg/mL | 0.032 µg/mL | 0.037 µg/mL | 0.013 µg/mL | 0.033 µg/mL | 0.034 µg/mL | single resonance |
| O=C([O][Sn]([c]1ccccc1)([c]1ccccc1)[c]1ccccc1)c1ccc2c(c1)OCCOCCOCCOCCO2 [Compound 5, triphenyltin 4,7,10,13,16-pentaoxadicyclo[13.4.0]cosa-1,3 (17),18-triene-1-carboxylate] | <0.003 µg/mL | <0.003 µg/mL | <0.003 µg/mL | <0.003 µg/mL | <0.003 µg/mL | <0.003 µg/mL | <0.003 µg/mL |  |
| CCC[CH2][Sn]([CH2]CCC)([CH2]CCC)[O]C(=O)c1ccc2c(c1)OCCOCCOCCOCCOCCO2 [Compound 2, tri-n-butyltin 4,7,10,13,16,19-hexaoxadicyclo[16.4.0]dicosa-1,3(20),21-triene-1-carboxylate] | 0.07 µg/mL | 0.006 µg/mL | 0.097 µg/mL | 0.03 µg/mL | 0.035 µg/mL | 0.1 µg/mL | 0.011 µg/mL |  |
| bis[di-n-butyl(3,6,9-trioxadecanoato)tin]oxide [Compound 15] | <0.003 µg/mL | <0.003 µg/mL | <0.003 µg/mL | <0.003 µg/mL | <0.003 µg/mL | <0.003 µg/mL | 0.003 µg/mL |  |
| CCC[CH2][Sn]([CH2]CCC)([O]C(=O)c1ccc2c(c1)OCCOCCOCCOCCO2)[O]C(=O)c1ccc2c(c1)OCCOCCOCCOCCO2 [Compound 7, di-n-butyltin bis[4,7,10,13,16-pentaoxadicyclo[13.4.0]cosa-1,3(17),18-triene-1-carboxylate]] | 0.286 µg/mL | 0.237 µg/mL | 0.049 µg/mL | 0.321 µg/mL | 0.273 µg/mL | 0.854 µg/mL | 0.332 µg/mL |  |
| di-n-butyltin bis (3,6,9-trioxadecanoate) [Compound 14] | 0.167 µg/mL | 0.066 µg/mL | 0.145 µg/mL | 0.178 µg/mL | 0.086 µg/mL | 0.28 µg/mL | 0.495 µg/mL |  |
| COc1cccc2c1C(=O)c1c(O)c3c(c(O)c1C2=O)C[C@@](O)(C(=O)CO)C[C@@H]3O[C@H]1C[C@H](N)[C@H](O)[C@H](C)O1 [doxorubicin, reference compound] | 0.016 µg/mL (≈ 0.0294 µM) | 0.008 µg/mL (≈ 0.0147 µM) | 0.09 µg/mL (≈ 0.166 µM) | 0.06 µg/mL (≈ 0.11 µM) | 0.01 µg/mL (≈ 0.0184 µM) | 0.199 µg/mL (≈ 0.366 µM) | 0.011 µg/mL (≈ 0.0202 µM) |  |
| CCC[CH2][Sn]([CH2]CCC)([CH2]CCC)[O]C(=O)COCCOC [Compound 9, tri-n-butyltin 3,6-diheptanoate] | 0.09 µg/mL | 0.04 µg/mL | 0.153 µg/mL | 0.084 µg/mL | 0.032 µg/mL | 0.061 µg/mL | 0.082 µg/mL | single resonance |
| bis{di-n-butyl-[4,7,10,13,16,19-hexaoxadicyclo[16.4.0]dicosa-1,3(20),21-triene-1-carboxylato]tin}oxide [Compound 4] | 0.068 µg/mL | 0.046 µg/mL | 0.126 µg/mL | 0.082 µg/mL | 0.036 µg/mL | 0.073 µg/mL | 0.239 µg/mL |  |
| N.N.[Cl][Pt][Cl] [cisplatin, reference compound] | 0.558 µg/mL | 0.422 µg/mL | 2.253 µg/mL | 0.169 µg/mL | 0.699 µg/mL | 3.269 µg/mL | 0.967 µg/mL |  |
| CCC[CH2][Sn]([CH2]CCC)([CH2]CCC)[O]C(=O)c1ccc2c(c1)OCCOCCOCCOCCO2 [Compound 6, tri-n-butyltin 4,7,10,13,16-pentaoxadicyclo[13.4.0]cosa-1,3 (17),18-triene-1-carboxylate] | <0.003 µg/mL | <0.003 µg/mL | <0.003 µg/mL | <0.003 µg/mL | <0.003 µg/mL | <0.003 µg/mL | <0.003 µg/mL | single resonance |
